ChEMBL document CHEMBL3885861, “Open TG-GATES”

Organism: Rattus norvegicus
Assay: Open TG-GATES - Regimen: Single
Assay type: toxicity, organism-based, Sprague-Dawley
Parameters: regimen Single, gender Male, age 6 weeks
Conditions: in vivo, iv, 6 mg/kg, route intravenous injection, dose level Low; for APTT / Bas / Eos / Fbg / Hb / Ht / Lym / MCH / MCHC / MCV / Mono / Neu / PT / Plat / RBC / Ret / WBC: tissue Blood; for KIDNEY_L / KIDNEY_R / KIDNEY_TOTAL: tissue Kidney; for LIVER: tissue Liver; for A/G / ALP / ALT / AST / BUN / CRE / Ca / Cl / DBIL / GLC / IP / K / LDH / Na / PL / RALB / TBIL / TC / TG / TP / gamma-GTP: tissue Plasma

Compound: NCCBr [BROMOETHANAMINE]
- TERMINAL_BW (3 h): 221.9 g
- APTT (3 h): 22.5 s
- Bas (3 h): 0%
- Eos (3 h): 0.4%
- Fbg (3 h): 300 mg/dL
- Hb (3 h): 13.3 g/dL
- Ht (3 h): 39.3%
- Lym (3 h): 77.8%
- MCH (3 h): 21.5 pg
- MCHC (3 h): 33.8%
- MCV (3 h): 63.5 fL
- Mono (3 h): 3%
- Neu (3 h): 18%
- PT (3 h): 16 s
- Plat (3 h): 125.4 x10_4/uL
- RBC (3 h): 618.4 x10_4/ul
- Ret (3 h): 6.4%
- WBC (3 h): 83.3 x10_2/uL
- KIDNEY_L (3 h): 1 g
- KIDNEY_R (3 h): 1 g
- KIDNEY_TOTAL (3 h): 2 g
- LIVER (3 h): 10.5 g
- A/G (3 h): 1.2
- ALP (3 h): 1604 IU/L
- ALT (3 h): 44.6 IU/L
- AST (3 h): 78 IU/L
- BUN (3 h): 14.4 mg/dL
- CRE (3 h): 0.2 mg/dL
- Ca (3 h): 10.8 mg/dL
- Cl (3 h): 106.2 meq/L
- DBIL (3 h): 0 mg/dL
- GLC (3 h): 167.8 mg/dL
- IP (3 h): 7.9 mg/dL
- K (3 h): 4.4 meq/L
- LDH (3 h): 187.8 IU/L
- Na (3 h): 142 meq/L
- PL (3 h): 140.8 mg/dL
- RALB (3 h): 3 g/dL
- TBIL (3 h): 0.02 mg/dL
- TC (3 h): 76.8 mg/dL
- TG (3 h): 101 mg/dL
- TP (3 h): 5.4 g/dL
- gamma-GTP (3 h): 2 IU/L
- TERMINAL_BW (6 h): 218.1 g
- APTT (6 h): 23.7 s
- Bas (6 h): 0%
- Eos (6 h): 0.6%
- Fbg (6 h): 311 mg/dL
- Hb (6 h): 13.3 g/dL
- Ht (6 h): 39.1%
- Lym (6 h): 83%
- MCH (6 h): 21.1 pg
- MCHC (6 h): 34.1%
- MCV (6 h): 61.9 fL
- Mono (6 h): 2.6%
- Neu (6 h): 12.6%
- PT (6 h): 16.2 s
- Plat (6 h): 118.5 x10_4/uL
- RBC (6 h): 632.6 x10_4/ul
- Ret (6 h): 6.5%
- WBC (6 h): 95.2 x10_2/uL
- KIDNEY_L (6 h): 1 g
- KIDNEY_R (6 h): 1 g
- KIDNEY_TOTAL (6 h): 2 g
- LIVER (6 h): 9.3 g
- A/G (6 h): 1.1
- ALP (6 h): 1385.2 IU/L
- ALT (6 h): 39 IU/L
- AST (6 h): 71.4 IU/L
- BUN (6 h): 10.6 mg/dL
- CRE (6 h): 0.1 mg/dL
- Ca (6 h): 10.5 mg/dL
- Cl (6 h): 105.8 meq/L
- DBIL (6 h): 0 mg/dL
- GLC (6 h): 178.8 mg/dL
- IP (6 h): 8.9 mg/dL
- K (6 h): 4.4 meq/L
- LDH (6 h): 147 IU/L
- Na (6 h): 140.8 meq/L
- PL (6 h): 128.8 mg/dL
- RALB (6 h): 2.8 g/dL
- TBIL (6 h): 0.02 mg/dL
- TC (6 h): 74.4 mg/dL
- TG (6 h): 49.2 mg/dL
- TP (6 h): 5.4 g/dL
- gamma-GTP (6 h): 2 IU/L
- TERMINAL_BW (9 h): 207.3 g
- APTT (9 h): 22.3 s
- Bas (9 h): 0%
- Eos (9 h): 0.6%
- Fbg (9 h): 297 mg/dL
- Hb (9 h): 13.4 g/dL
- Ht (9 h): 38.5%
- Lym (9 h): 80.4%
- MCH (9 h): 21.4 pg
- MCHC (9 h): 34.7%
- MCV (9 h): 61.8 fL
- Mono (9 h): 2.2%
- Neu (9 h): 16.2%
- PT (9 h): 16.3 s
- Plat (9 h): 110.5 x10_4/uL
- RBC (9 h): 623.6 x10_4/ul
- Ret (9 h): 5.4%
- WBC (9 h): 73.1 x10_2/uL
- KIDNEY_L (9 h): 0.9 g
- KIDNEY_R (9 h): 0.9 g
- KIDNEY_TOTAL (9 h): 1.8 g
- LIVER (9 h): 8 g
- A/G (9 h): 1.2
- ALP (9 h): 1508.8 IU/L
- ALT (9 h): 34 IU/L
- AST (9 h): 70 IU/L
- BUN (9 h): 12.8 mg/dL
- CRE (9 h): 0.2 mg/dL
- Ca (9 h): 10.5 mg/dL
- Cl (9 h): 106.2 meq/L
- DBIL (9 h): 0 mg/dL
- GLC (9 h): 174 mg/dL
- IP (9 h): 9.1 mg/dL
- K (9 h): 4.3 meq/L
- LDH (9 h): 129 IU/L
- Na (9 h): 141.2 meq/L
- PL (9 h): 121.8 mg/dL
- RALB (9 h): 2.9 g/dL
- TBIL (9 h): 0.018 mg/dL
- TC (9 h): 71.6 mg/dL
- TG (9 h): 48.4 mg/dL
- TP (9 h): 5.4 g/dL
- gamma-GTP (9 h): 1.4 IU/L
- TERMINAL_BW (24 h): 221.5 g
- APTT (24 h): 23.6 s
- Bas (24 h): 0%
- Eos (24 h): 0.8%
- Fbg (24 h): 322.8 mg/dL
- Hb (24 h): 14 g/dL
- Ht (24 h): 40.5%
- Lym (24 h): 79.8%
- MCH (24 h): 21 pg
- MCHC (24 h): 34.6%
- MCV (24 h): 60.7 fL
- Mono (24 h): 2.8%
- Neu (24 h): 15.6%
- PT (24 h): 16.4 s
- Plat (24 h): 121.7 x10_4/uL
- RBC (24 h): 666.6 x10_4/ul
- Ret (24 h): 5.5%
- WBC (24 h): 96.1 x10_2/uL
- KIDNEY_L (24 h): 1 g
- KIDNEY_R (24 h): 1.1 g
- KIDNEY_TOTAL (24 h): 2.1 g
- LIVER (24 h): 10.8 g
- A/G (24 h): 1.1
- ALP (24 h): 1490 IU/L
- ALT (24 h): 44.6 IU/L
- AST (24 h): 67.6 IU/L
- BUN (24 h): 18 mg/dL
- CRE (24 h): 0.2 mg/dL
- Ca (24 h): 10.7 mg/dL
- Cl (24 h): 105.8 meq/L
- DBIL (24 h): 0 mg/dL
- GLC (24 h): 183.6 mg/dL
- IP (24 h): 6.8 mg/dL
- K (24 h): 4.6 meq/L
- LDH (24 h): 187.8 IU/L
- Na (24 h): 141.6 meq/L
- PL (24 h): 162.8 mg/dL
- RALB (24 h): 2.9 g/dL
- TBIL (24 h): 0.01 mg/dL
- TC (24 h): 90.8 mg/dL
- TG (24 h): 99.4 mg/dL
- TP (24 h): 5.6 g/dL
- gamma-GTP (24 h): 1.8 IU/L
